Experimental findings from PubChem BioAssay (NCI) are described below.

Test systems include UO-31 renal; MDA-N; NCI/ADR-RES ovarian; LOX IMVI melanoma; T-47D breast; UACC-257 melanoma; HCT-116 colon; SK-OV-3 ovarian; MALME-3M melanoma; MCF7 breast; SF-268 CNS; HL-60(TB) leukemia; OVCAR-8 ovarian; SW-620 colon; PC-3 prostate; MDA-MB-231 breast; SK-MEL-28 melanoma; SK-MEL-5 melanoma; ACHN renal.
Holding throughout (assay): NCI-60 cell line screen, 48 h

The structures appear in SMILES notation.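 Briefly, cells in 96-well plates were exposed to five compound concentrations for 48 h, and endpoints were estimated by linear interpolation. At the TGI there is no net growth.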

As for `CC(C)N(c1cc2c(cc1F)c(=O)c(C(=O)O)cn2-c1ccc(N2CCN(C)CC2)cn1)C(C)C`, the TGI with UO-31 renal, in the experiment on MDA-N, in the experiment with NCI/ADR-RES ovarian, in the experiment on LOX IMVI melanoma, with T-47D breast and in the experiment on UACC-257 melanoma was above 100 µM throughout. In addition, the TGI in the experiment on HCT-116 colon, with SK-OV-3 ovarian, with MALME-3M melanoma, in the experiment on MCF7 breast, in the experiment with SF-268 CNS and with HL-60(TB) leukemia was above 100 µM throughout. Also, the TGI in the experiment with OVCAR-8 ovarian, in the experiment with SW-620 colon, in the experiment on PC-3 prostate, in the experiment on MDA-MB-231 breast and with SK-MEL-28 melanoma was above 100 µM in each case.

As for `COc1cc(C2S/C(=C/c3ccccc3)C(=O)N2c2ccc([N+](=O)[O-])cc2)cc(OC)c1OC` (stereo not given), the TGI in the experiment on UO-31 renal, with MDA-N, with NCI/ADR-RES ovarian, with LOX IMVI melanoma, in the experiment on T-47D breast and with UACC-257 melanoma was above 100 µM in each case. Besides, the TGI in the experiment on HCT-116 colon, with SK-OV-3 ovarian, in the experiment with SK-MEL-5 melanoma, in the experiment with ACHN renal, with MALME-3M melanoma and in the experiment with MCF7 breast was above 100 µM in each case. Further, the TGI in the experiment on SF-268 CNS, in the experiment on HL-60(TB) leukemia, in the experiment on OVCAR-8 ovarian, with SW-620 colon, with PC-3 prostate and in the experiment on MDA-MB-231 breast was above 100 µM each time. The compound also displayed a TGI in the experiment with SK-MEL-28 melanoma above 100 µM.

For `C[C@@H]1OC2(O)[C@@H]3CCCN3C(=O)N(Cc3ccccc3)N2C1=O` (stereo not given in full), the TGI with MDA-N, in the experiment with NCI/ADR-RES ovarian, in the experiment on LOX IMVI melanoma, with T-47D breast, with UACC-257 melanoma and in the experiment on HCT-116 colon was above 100 µM in each case. Besides, the TGI in the experiment on SK-OV-3 ovarian, in the experiment on SK-MEL-5 melanoma, with ACHN renal, in the experiment with MALME-3M melanoma, in the experiment on MCF7 breast and in the experiment with SF-268 CNS was above 100 µM in each case. In addition, the TGI in the experiment on HL-60(TB) leukemia, in the experiment on OVCAR-8 ovarian, in the experiment with SW-620 colon, in the experiment on PC-3 prostate, with MDA-MB-231 breast and in the experiment on SK-MEL-28 melanoma was above 100 µM each time.

In the case of `CC(C)=CCC[C@@H](C)C1=C(Nc2ccccc2)C(O)=C(C)C(=O)C1=O`, the TGI was 15.5 µM in the experiment with UO-31 renal; 54.2 µM in the experiment with MDA-N; 3.96 µM with NCI/ADR-RES ovarian; 97.1 µM in the experiment on LOX IMVI melanoma; 32.3 µM in the experiment on T-47D breast; 41.9 µM with UACC-257 melanoma. Also, the TGI in the experiment on HCT-116 colon is 16.9 µM; with SK-OV-3 ovarian it was above 36.4 µM; in the experiment on SK-MEL-5 melanoma, 7.97 µM; in the experiment on MALME-3M melanoma, 19.9 µM; in the experiment with MCF7 breast, 22.5 µM; in the experiment with SF-268 CNS, 25.2 µM. Besides, the TGI was 1.35 µM with HL-60(TB) leukemia; 23.5 µM in the experiment with OVCAR-8 ovarian; above 48 µM in the experiment on SW-620 colon; above 40.5 µM in the experiment on PC-3 prostate; above 27.4 µM in the experiment on MDA-MB-231 breast; 30.9 µM with SK-MEL-28 melanoma.

For `NC(=S)N/N=C(/C(=O)Nc1nc2ccc([N+](=O)[O-])cc2s1)C1C(=O)NC(=S)NC1=O`, the TGI in the experiment with UO-31 renal, in the experiment on MDA-N, with NCI/ADR-RES ovarian, with LOX IMVI melanoma, in the experiment on T-47D breast and in the experiment with UACC-257 melanoma was above 100 µM in each case. Besides, the TGI with HCT-116 colon, in the experiment on SK-OV-3 ovarian, with ACHN renal, in the experiment on MCF7 breast, in the experiment with SF-268 CNS and in the experiment with HL-60(TB) leukemia was above 100 µM each time. Further, the TGI in the experiment on OVCAR-8 ovarian, in the experiment with SW-620 colon, with PC-3 prostate, with MDA-MB-231 breast and in the experiment on SK-MEL-28 melanoma was above 100 µM throughout.

Turning to `COc1c(O)cc2c(c1O)C1O[C@H](CO)C(O)[C@H](O)[C@H]1OC2=O` (stereo not given in full), the TGI in the experiment on MDA-N, in the experiment with NCI/ADR-RES ovarian, with LOX IMVI melanoma, with T-47D breast, in the experiment with UACC-257 melanoma and in the experiment on HCT-116 colon was above 100 µM throughout. The TGI in the experiment on SK-OV-3 ovarian, in the experiment with SK-MEL-5 melanoma, with ACHN renal, in the experiment with MALME-3M melanoma, in the experiment on MCF7 breast and in the experiment with SF-268 CNS was above 100 µM each time. In addition, the TGI in the experiment with HL-60(TB) leukemia, with OVCAR-8 ovarian, in the experiment with SW-620 colon, in the experiment with PC-3 prostate, in the experiment with MDA-MB-231 breast and in the experiment with SK-MEL-28 melanoma was above 100 µM in each case.

With `N#CC1=C(N2CCOCC2)CCC1`, the TGI in the experiment with UO-31 renal, in the experiment with MDA-N, in the experiment with NCI/ADR-RES ovarian, in the experiment with LOX IMVI melanoma, with T-47D breast and with UACC-257 melanoma was above 100 µM in each case. Also, the TGI with HCT-116 colon, in the experiment with SK-OV-3 ovarian, in the experiment with SK-MEL-5 melanoma, in the experiment with ACHN renal, with MALME-3M melanoma and in the experiment on MCF7 breast was above 100 µM throughout. In addition, the TGI in the experiment on SF-268 CNS, in the experiment on HL-60(TB) leukemia, in the experiment on OVCAR-8 ovarian, in the experiment on SW-620 colon, with PC-3 prostate and with MDA-MB-231 breast was above 100 µM in each case.
